For 24 molecules, IC50 results are on record in patent publication US7153855B2, “Pyrazolopyridinyl pyrimidine therapeutic compounds” (SmithKline Beecham Corporation, priority 2001, dated 2006).

Each structure is given as a SMILES string.

The term IC50 denotes the midpoint of a concentration-inhibition curve.

The experiment deals with HSV-1. Put plainly: HSV-1 infection of Vero 76 cells, viral DNA detected by hybridization capture (chemiluminescence). The class given is cell-based. The following applies: Human alphaherpesvirus 1; HSV-1 in Vero 76 cells, MOI=0.001, compounds incubated 40–48 hours at 37° C.; read-out: IC50. From the text: In the following example, “MEM” means Minimal Essential Media; “FBS” means Fetal Bovine Serum; “NP40” and “Igepal” are detergents; “MOI” means Multiplicity of Infection; “NaOH” means sodium hydroxide; “MgCl2” means magnesium chloride; “dATP” means deoxyadenosine 5′ triphosphate; “dUTP” means deoxyuridine 5′ triphosphate; “dCTP” means dexoxycytidine 5′ triphosphate; “dGTP” means deoxyguanosine 5′ triphosphate; “GuSCN” means Guanidinium thiocyanate; “EDTA” means ethylenediamine tetraacetic acid; “TE” means Tris-EDTA; “SCC” means sodium chloride/sodium citrate; “APE” means a solution of ammonia acetate, ammonia phosphate, EDTA; “PBS” means phosphate buffered saline; and “HRP” means horseradish peroxidase.
Vero 76 cells were maintained in MEM with Earle's salts, L-glutamine, 8% FBS (Hyclone, A-1111-L) and 100 units/mL Penicillin-100 μg/mL Streptomycin. For assay conditions, FBS was reduced to 2%. Cells are seeded into 96-well tissue culture plates at a density of 5×10^4 cells/well after being incubated for 45 min at 37° C. in the presence of HSV-1 or HSV-2 (MOI=0.001). Test compounds are added to the wells and the plates are incubated at 37° C. for 40–48 hours. Cell lysates are prepared as follows: media was removed and replaced with 150 μL/well 0.2 N NaOH with 1% Igepal CA 630 or NP-40. Plates were incubated up to 14 days at room temperature in a humidified chamber to prevent evaporation.
For the detection probe, a gel-purified, digoxigenin-labeled, 710-bp PCR fragment of the HSV UL-15 sequence was utilized. PCR conditions included 0.5 μM primers, 180 μM dTTP, 20 μM dUTP-digoxigenin (Boehringer Mannheim 1558706), 200 μM each of dATP, dCTP, and dGTP, 1×PCR Buffer II (Perkin Elmer), 2.5 mM MgCl2, 0.025 units/μL of AmpliTaq Gold polymerase (Perkin Elmer), and 5 ng of gel-purified HSV DNA per 100 μL Extension conditions were 10 min at 95° C., followed by 30 cycles of 95° C. for 1 min, 55° C. for 30 sec, and 72° C. for 2 min. The amplification was completed with a 10-min incubation at 72° C. Primers were selected to amplify a 728 bp probe spanning a section of the HSV1 UL15 open reading frame (nucleotides 249–977). Single-stranded transcripts were purified with Promega M13 Wizard kits. The final product was mixed 1:1 with a mixture of 6 M GuSCN, 100 mM EDTA and 200 μg/mL herring sperm DNA and stored at 4° C.
The capture DNA plasmid (HSV UL13 region in pUC) was linearized by cutting with Xba I, denatured for 15 min at 95° C. and diluted immediately into Reacti-Bind DNA Coating Solution (Pierce, 17250, diluted 1:1 with TE buffer, pH 8) at 1 ng/μL 75 μL/well were added to Corning (#3922 or 9690) white 96-well plates and incubated at room temperature for at least 4 hrs before washing twice with 300 μL/well 0.2×SSC/0.05% Tween-20 (SSC/T buffer). The plates were then incubated overnight at room temperature with 150 μL/well 0.2 N NaOH, 1% IGEPAL and 10 μg/mL herring sperm DNA.
Twenty-seven (27) μL of cell lysate was combined with 45 μL of hybridization solution (final concentration: 3M GuSCN, 50 mM EDTA, 100 μg/ml salmon sperm DNA, 5×Denhardt's solution, 0.25×APE, and 5 ng of the digoxigenin-labeled detection probe). APE is 1.5 M NH4-acetate, 0.15 M NH4H2 phosphate, and 5 mM EDTA adjusted to pH 6.0. Mineral oil (50 μL) was added to prevent evaporation. The hybridization plates were incubated at 95° C. for 10 minutes to denature the DNA, then incubated at 42° C. overnight. The wells were washed 6× with 300 μL/well SSC/T buffer then incubated with 75 μL/well anti-digoxigenin-HRP-conjugated antibody (Boehringer Mannheim 1207733, 1:5000 in TE) for 30 min at room temperature. The wells were washed 6× with 300 μL/well with PBS/0.05% Tween-20 before 75 μL/well SuperSignal LBA substrate (Pierce) was added. The plates were incubated at room temperature for 30 minutes and chemiluminescence was measured in a Wallac Victor reader.
The following results were obtained for HSV-1.
As to `c1cc(NC2CC2)n2nc(-c3ccc(OCC4CC4)cc3)c(-c3ccnc(NC4CC4)n3)c2c1` [Example 72, N-Cyclopropyl-3-[2-(cyclopropylamino)-4-pyrimidinyl]-2-[4-(cyclopropylmethoxy)phenyl]pyrazolo[1,5-a]pyridin-7-amine], the IC50 was 1.4 µM.

On to `Clc1ccc(-c2nn3c(NC4CCCC4)cccc3c2-c2ccnc(NC3CCCC3)n2)cc1Br` [Example 43, 2-(3-Bromo-4-chlorophenyl)-N-cyclopentyl-3-[2-(cyclopentylamino)-4-pyrimidinyl]pyrazolo[1,5-a]pyridin-7-amine], for which the IC50 came to 0.5 µM.

As to `COc1ccc(-c2nn3c(NCC(=O)N4CCCC4)cccc3c2-c2ccnc(NC3CCCC3)n2)cc1` [Example 94, 3-[2-(Cyclopentylamino)-4-pyrimidinyl]-2-(4-methoxyphenyl)-N-[2-oxo-2-(1-pyrrolidinyl)ethyl]pyrazolo[1,5-a]pyridin-7-amine], the IC50 came out at 6.2 µM.

With `COc1ccc(-c2nn3c(N4CCOCC4)cccc3c2-c2ccnc(NC3CC3)n2)cc1` [Example 63, N-Cyclopropyl-4-[2-(4-methoxyphenyl)-7-(4-morpholinyl)pyrazolo[1,5-a]pyridin-3-yl]-2-pyrimidinamine], the IC50 came to 1.2 µM.

`CCCCNc1nccc(-c2c(-c3ccc(NCc4ccccc4)cc3)nn3c(NCCCC)cccc23)n1` [Example 45, 2-[4-(Benzylamino)phenyl]-N-butyl-3-[2-(butylamino)-4-pyrimidinyl]-pyrazolo[1,5-a]pyridin-7-amine]: the IC50 amounted to 22 µM.

Regarding `COc1ccc(-c2nn3c(NC4CC4)cccc3c2-c2ccnc(NC3CCCC3)n2)cc1` [Example 60, 3-[2-(Cyclopentylamino)-4-pyrimidinyl]-N-cyclopropyl-2-(4-methoxyphenyl)pyrazolo[1,5-a]pyridin-7-amine], the IC50 was found to be 0.4 µM.

On to `Fc1cccc(-c2nn3c(NC4CCCC4)cccc3c2-c2ccnc(NC3CC3)n2)c1` [Example 102, N-Cyclopentyl-3-[2-(cyclopropylamino)-4-pyrimidinyl]-2-(3-fluorophenyl)pyrazolo[1,5-a]pyridin-7-amine], for which the IC50 is 0.7 µM.

With `C=CCOc1ccc(-c2nn3c(NC4CCCC4)cccc3c2-c2ccnc(NC3CCCC3)n2)cc1` [Example 7, 2-[4-(Allyloxy)phenyl]-N-cyclopentyl-3-[2-(cyclopentylamino)-4-pyrimidinyl]pyrazolo[1,5-a]pyridin-7-amine], the IC50 stood at 0.15 µM.

Consider `COc1ccc(-c2nn3c(N)cccc3c2-c2ccnc(NC3CCCC3)n2)cc1` [Example 83, 3-[2-(Cyclopentylamino)pyrimidin-4-yl]-2-(4-methoxyphenyl)pyrazolo-[1,5-a]pyridin-7-amine], for which the IC50 came to 0.7 µM.

For the molecule `Cc1cccc(-c2nn3c(NC(C)C)cccc3c2-c2ccnc(NC3CCCC3)n2)c1` [Example 49, 3-[2-(Cyclopentylamino)-4-pyrimidinyl]-N-isopropyl-2-(3-methylphenyl)pyrazolo[1,5-a]pyridin-7-amine], the IC50 came to 0.5 µM.

On to `CC(C)COc1ccc(-c2nn3c(NC4CCCC4)cccc3c2-c2ccnc(NC3CCCC3)n2)cc1` [Example 10, N-Cyclopentyl-3-[2-(cyclopentylamino)-4-pyrimidinyl]-2-(4-isobutoxyphenyl)pyrazolo [1,5-a]pyridin-7-amine], for which the IC50 came to 0.9 µM.

Take `NC(=O)c1cccc(-c2nn3c(NC4CCCC4)cccc3c2-c2ccnc(NC3CCCC3)n2)c1` [Example 40, 3-{7-(Cyclopentylamino)-3-[2-(cyclopentylamino)-4-pyrimidinyl]-pyrazolo[1,5-a]pyridin-2-yl}benzamide]: the IC50 was determined as 2.5 µM.

Turning to `C=CCOc1ccc(-c2nn3c(NC4CC4)cccc3c2-c2ccnc(NC3CC3)n2)cc1` [Example 73, 2-[4-(Allyloxy)phenyl]-N-cyclopropyl-3-[2-(cyclopropylamino)-4-pyrimidinyl]pyrazolo[1,5-a]pyridin-7-amine], the IC50 came to 2 µM.

In the case of `CCCCNc1nccc(-c2c(-c3ccc(Nc4ccccc4)cc3)nn3c(NCCCC)cccc23)n1` [Example 19, 2-(4-Anilinophenyl)-N-butyl-3-[2-(butylamino)-4-pyrimidinyl]pyrazolo[1,5-a]pyridin-7-amine], the IC50 is 0.5 µM.

On to `Oc1ccc(-c2nn3c(NC4CC4)cccc3c2-c2ccnc(NC3CCCC3)n2)cc1` [Example 67, 4-[3-[2-(Cyclopentylamino)-4-pyrimidinyl]-7-(cyclopropylamino)pyrazolo[1,5-a]pyridin-2-yl]phenol], for which the half-maximal inhibitory concentration (IC50) is 0.3 µM.

Take `Brc1ccccc1-c1nn2c(NC3CCCC3)cccc2c1-c1ccnc(NC2CCCC2)n1` [Example 24, 2-(2-Bromophenyl)-N-cyclopentyl-3-[2-(cyclopentylamino)-4-pyrimidinyl]pyrazolo[1,5-a]pyridin-7-amine]: the IC50 was determined as 0.9 µM.

Turning to `CCOC(=O)COc1ccc(-c2nn3c(NC4CCCC4)cccc3c2-c2ccnc(NC3CCCC3)n2)cc1` [Example 8, Ethyl (4-{7-(cyclopentylamino)-3-[2-(cyclopentylamino)-4-pyrimidinyl]-pyrazolo[1,5-a]pyridin-2-yl}phenoxy)acetate], the IC50 was 3 µM.

As for `Oc1ccc(-c2nn3c(NC4CCCC4)cccc3c2-c2ccnc(NC3CC3)n2)cc1` [Example 68, 4-{7-(Cyclopentylamino)-3-[2-(cyclopropylamino)-4-pyrimidinyl]-pyrazolo[1,5-a]pyridin-2-yl}phenol], the IC50 came out at 1.2 µM.

For `COc1ccc(-c2nn3c(N4CCOCC4)cccc3c2-c2ccnc(NC3CCCC3)n2)cc1` [Example 61, N-Cyclopentyl-4-[2-(4-methoxyphenyl)-7-(4-morpholinyl)pyrazolo[1,5-a]pyridin-3-yl]-2-pyrimidinamine], the IC50 came out at 0.2 µM.

Take `COc1cccc(-c2nn3c(Cl)cccc3c2-c2ccnc(NC3CCCC3)n2)c1` [Example 50, 4-[7-Chloro-2-(3-methoxyphenyl)pyrazolo[1,5-a]pyridin-3-yl]-N-cyclopentyl-2-pyrimidinamine]: the IC50 was 2.5 µM.

Consider `COc1ccc(-c2nn3c(N4CCCC4)cccc3c2-c2ccnc(NC3CCCC3)n2)cc1` [Example 2, N-Cyclopentyl-4-[2-(4-methoxyphenyl)-7-(1-pyrrolidinyl)pyrazolo[1,5-a]pyridin-3-yl]-2-pyrimidinamine], for which the IC50 amounted to 0.6 µM.

Turning to `Brc1cccc(-c2nn3c(NC4CCCC4)cccc3c2-c2ccnc(NC3CCCC3)n2)c1` [Example 25, 2-(3-Bromophenyl)-N-cyclopentyl-3-[2-(cyclopentylamino)-4-pyrimidinyl]pyrazolo[1,5-a]pyridin-7-amine], the IC50 came out at 0.2 µM.

In the case of `CCCCNc1nccc(-c2c(-c3ccc(N4CCOCC4)cc3)nn3c(NCCCC)cccc23)n1` [Example 75, N-Butyl-3-[2-(butylamino)pyrimidin-4-yl]-2-(4-morpholin-4-ylphenyl)pyrazolo[1,5-a]pyridin-7-amine], the IC50 came out at 27 µM.

Consider `c1cc(OCC2CC2)cc(-c2nn3c(NC4CCCC4)cccc3c2-c2ccnc(NC3CCCC3)n2)c1` [Example 55, N-Cyclopentyl-3-[2-(cyclopentylamino)-4-pyrimidinyl]-2-[3-(cyclopropylmethoxy)phenyl]pyrazolo[1,5-a]pyridin-7-amine], for which the IC50 was determined as 0.1 µM.
